# Measurements reported in patent US4576956A, “Iodo propargylaminoisoxazoles as fungicides” (Shionogi & Co., Ltd., priority 1982, dated 1986).
# Columns and labels:
# [1] = tested on: Trichophyton asteroides; test: Test A-1 Anti-fungal Activity (MIC), microwell dilution; format: cell-based; conditions: T. asteroides, in vitro, 1×10^5 cells/ml
# Experimental: (§1) Test A-1 Anti-fungal Activity (MIC)
# The following results (Table 1) were obtained in an anti-fungal activity test in vitro against Aspergillus fumigatus, Candida albicans M-9 and Trichophyton asteroides. The concentration of the test cells was 1×10^5 cells/ml and the activity was measured by a microwell dilution method. The structure of the test compounds is referred to in the Examples.
# [2] = tested on: Candida albicans; test: Test A-2 Anti-fungal Activity (MCC); conditions: 48 h, read-out: MCC (Minimal Cidal Concentration)
# Experimental: (§12) Some MCC (Minimal Cidal Concentration) values (Table 1) were obtained against Candida albicans and Trichophyton asteroides by the following method. After the MIC value was obtained by the microwell method, a loopful amount was picked up from the medium in which no growth of the fungus was observed, inoculated into a Subrouraud's glucose agar medium and incubated at 28° C. for 2 days in the case of C. albicans and for 7 days in the case of T. asteroides.
# [3] = tested on: Botrytis cinerea; test: Test B-1 Control Test of Botrytis Rot (Gray Mold) of Cucumber; format: in vivo; conditions: 500 ppm, 3 days
# Experimental: Test B-1 Control Test of Botrytis Rot (Gray Mold) of Cucumber Seedlings of Cucumber (Cultivar: Matsukaze) were planted and grown in soil in vinyl-chloride cups of 9 cm in diameter in a greenhouse. […] The treated cucumbers were kept for 3 days in a greenhouse (20° C.) and then disease degrees were counted. Standard of Evaluation […] (2) A slight soaked lesion on the reverse of the test leaf . . . × 5 (3) A slight fade of the leaf . . . × 10 (4) The inoculated part was faded and the fading expanded erosively . . . × 20 [formula]
# [4] = tested on: Aspergillus fumigatus; test: Test A-1 Anti-fungal Activity (MIC), microwell dilution; format: cell-based; conditions: in vitro, 1×10^5 cells/ml
# Experimental: as §1
# (§2) The concentration of the test cells was 1×10^5 cells/ml and the activity was measured by a microwell dilution method. The structure of the test compounds is referred to in the Examples.
# [5] = tested on: Candida albicans M-9; test: as above; format: cell-based; conditions: M9, C. albicans M-9, in vitro, 1×10^5 cells/ml
# Experimental: as §1, §2
# [6] = tested on: Trichophyton asteroides; test: Test A-2 Anti-fungal Activity (MCC); conditions: 168 h, read-out: MCC (Minimal Cidal Concentration)
# Experimental: as §12
# [7] = tested on: Rhizoctonia solani; test: Test B-6 Control Test to Damping-off of Cucumber; format: in vivo; conditions: R*, 500 ppm, soil drench, 1 week
# Experimental: (§3) Test B-6 Control Test to Damping-off of Cucumber
# (§4) Twenty cucumber seeds were sown into sterilized soil (150 ml) in a pot of 9 cm in diameter. The fungi, Phythium aphanidermatum, Fusarium oxysporum and Rhizoctonia solani were cultured on a wheat bran medium for 5 days and an additional 2 days thereafter were mixed with sterilized soil. The surface of the sown spots was covered with the above culture medium. A test solution (30 ml) at a prescribed concentration was poured into each pot. The pots were kept in a greenhouse (28° C.) for 1 week in the case of Pythium and Rhizoctonia and for 2 weeks in the case of Fusarium.
# (§5) The disease degree was observed and percent disease degree was calculated by the following formula: […]
# (§6) (1) No germination . . . x 4
# (§7) (2) Germed but withered . . . x 3
# (§8) (3) Disordered in 1/3 or more . . . x 2
# (§9) (4) Disordered in less than 1/3 . . . x 1
# (§10) (5) Not damaged . . . x 0 [formula]
# (§11) The percent disease control was calculated in the same manner as in Test B-1.
# [8] = tested on: Pythium aphanidermatum; test: Test B-6 Control Test to Damping-off of Cucumber; format: in vivo; conditions: P*, 500 ppm, soil drench, 1 week
# Experimental: as §3, §4, §5, §6, §7, §8, §9, §10, §11
# [9] = tested on: Fusarium oxysporum; test: Test B-6 Control Test to Damping-off of Cucumber; format: in vivo; conditions: F*, 500 ppm, soil drench, 2 weeks
# Experimental: as §3, §4, §5, §6, §7, §8, §9, §10, §11
# [10] = tested on: Sphaerotheca fuliginea; test: Test B-5 Control Test to Powdery Mildew of Cucumber; format: in vivo; conditions: 500 ppm, 2 weeks
# Experimental: Test B-5 Control Test to Powdery Mildew of Cucumber
# Each cucumber seedling was sprayed with 2.5 ml of a test solution. The seedlings were kept at 25°-26° C. for 1 day after the spraying and then sprayed with a conidium (1×10^5 conidia/ml) of Sphaerotheca fuliginea in a 100 ppm spreader solution (containing 20% polyoxyethylene glycol alkyl phenol ether and 12% lignin sulfonate) at a rate of 25 ml/20 cups.
# The seedlings were kept in a greenhouse (25° C.) for 2 weeks and then observed.
# Standard of Evaluation [formula]
# as §11
# [11] = tested on: Sclerotinia sclerotiorum; test: Test B-2 Control Test to Sclerotinia Rot of Cucumber; format: in vivo; conditions: 48 h, 2 days, read-out: Percent Disease Control
# Experimental: Test B-2 Control Test to Sclerotinia Rot of Cucumber
# Cucumber seedlings were sprayed with 2.5 ml of a test solution in the same manner as in Test B-1. Afterthe spraying, the seedlings were kept at 25°-26° C. for a day and three disks of 4 mm in diameter containing mycelia of Sclerotinia sclerotiorum were put on a primary leaf and then 10 μl of PD broth were dropped on the disks. The treated seedlings were kept ina greenhouse (20° C.) for 2 days and then the diameters of the disease spots were measured by a pair of slide callipers. [formula]
# [12] = tested on: fungi; conditions: prior art, Japanese patent publications; cited from earlier work
# [13] = tested on: Pyricularia oryzae; format: in vivo; conditions: 500 ppm; rice plant blast, 24 hours + 7 days
# [14] = tested on: Mycoplasma hyopneumonia; test: growth inhibition of a swine enzootic pneumonia-causative bacteria; format: cell-based; conditions: one range for the listed compounds, read-out: concentration inhibiting the growth
# [15] = tested on: Colletotrichum lagenarium; test: Test B-4 Control Test to Anthracnose of Cucumber; format: in vivo; conditions: 500 ppm, 3 + 3 days
# Experimental: Test B-4 Control Test to Anthracnose of Cucumber Each cucumber seedling was sprayed with 2.5 ml of a test solution in the same manner as in Test B-1. After the spraying, the seedlings were kept at 25°-26° C. for a day and were inoculated with five filter-paper disks of 6 mm in diameter saturated with a conidium suspension of Colletotrichum lagenarium at a concentration of 1×10^6 conidia/ml. The treated seedlings were kept in a greenhouse (25° C.) for 3 days and further kept at below 25° C. for 3 days. Standard of Evaluation The same as noted in Test B-3.
# [16] = tested on: Mycoplasma gallisepticum; test: minimum inhibition concentration; format: cell-based; conditions: Mycoplasmoides gallisepticum, one range for the listed compounds
# [17] = tested on: Pseudoperonospora cubensis; test: Test B-3 Control Test to Downy Mildew of Cucumber; format: in vivo; conditions: 500 ppm, 7 days
# Experimental: Test B-3 Control Test to Downy Mildew of Cucumber
# Each cucumber seedling was sprayed with 2.5 ml of a test solution in the same manner as in Test B-1. After the spraying, the seedlings were kept at 25°-26° C. for a day and a zoosporangium suspension or Pseudoperonospora cubensis was inoculated at a rate of five spots per leaf on a primary leaf. The treated seedlings were kept in a greenhouse for 7 days and then observed.
# (2) Slight disease at the inoculation spot . . . X5
# (3) A disease spot in the same size as the inoculation spot (without spreading) . . . x10
# (4) A disease spot larger than the inoculation spot . . . x20
# Disease degree and percent disease control were calculated in the same manner as in Test B-1.
SMILES,MIC [1] [µg/mL],MIC [4] [µg/mL],MIC [5] [µg/mL],other results
Cc1noc(N(C)CC#CI)c1Cl [Comp. 24],0.4,0.8,0.2,MFC [2]: 12.5 µg/mL; Percent Disease Control [3]: 100%; MFC [6]: 3.1 µg/mL; Percent Disease Control [7]: 100%; Percent Disease Control [8]: 100%; Percent Disease Control [9]: 93%; Percent Disease Control [10]: 100%; pest or weed control at 500 ppm [11]: 100%
Cc1cc(N(C)CC#CI)on1 [Comp. 3],1.6,0.8,0.4,–
Cc1cc(OCC#CI)no1 [3-(3-iodo-2-propynyl)oxy-5-methylisoxazole],–,–,–,anti-fungal activity [12]: anti-fungal and anti-septic agent for woods
Cc1c(N(C)CC#CI)noc1-c1ccccc1 [compound 36],–,–,–,Percent Disease Control [13]: 90%
CCN(CC#CI)c1cc(C)no1 [Comp. 4],1.6,1.6,0.8,MFC [2]: 25 µg/mL; MFC [6]: 3.1 µg/mL
CCN(CC#CI)c1onc(C)c1C [Comp. 21],1.6,1.6,1.6,–
CN(CC#CI)c1cc(-c2ccccc2)no1 [Comp. 13],3.1,3.1,3.1,MIC [14]: 3.13 to 12.5 µg/mL; Percent Disease Control [13]: 99%
Cc1noc(NCC#CI)c1C [Comp. 19],0.8,3.1,0.8,Percent Disease Control [15]: 100%; MIC [16]: 6.25 to 12.5 µg/mL; Percent Disease Control [7]: 100%; Percent Disease Control [8]: 100%; Percent Disease Control [9]: 78%; Percent Disease Control [13]: 100%; pest or weed control at 500 ppm [11]: 100%
CN(CC#CI)c1cc(C2CC2)no1 [Comp. 8],3.1,1.6,0.8,–
"Cc1noc(C)c1NCC#CI [compound 38, 3,5-dimethyl-4-(3-iodo-2-propynylamino)isoxazole]",0.8,3.1,0.8,–
CN(CC#CI)c1cc(C2CCCCC2)no1 [Comp. 9],–,–,–,MIC [14]: 3.13 to 12.5 µg/mL; Percent Disease Control [17]: 100%
"Clc1ccccc1C(c1ccccc1)(c1ccccc1)n1ccnc1 [Ref. Comp., Clotrimazole, reference compound]",0.2,12.5,6.3,MFC [2]: > 100 µg/mL; MFC [6]: 6.3 µg/mL
"CCc1noc(N(C)CC#CI)c1Cl [Comp. 1, 3-ethyl-4-chloro-5-(N-methyl-N-3-iodo-2-propynyl)-aminoisoxazole]",0.8,6.3,3.1,Percent Disease Control [15]: 100%; Percent Disease Control [3]: 100%; Percent Disease Control [17]: 100%; Percent Disease Control [10]: 100%; pest or weed control at 500 ppm [11]: 100%
